Data from patent US10966994B2, “Thromboxane receptor antagonists” (ATXA THERAPEUTICS LIMITED, priority 2015, dated 2021).

Assays:
[1] = system: purinergic (ADP) receptors; experiment: Specificity testing, purinergic (ADP) receptor signaling
[2] = Toxicity
[3] = Cell permeability; type: in vitro ADME
[4] = system: MCT-induced PAH; experiment: Monocrotoline (MCT)-induced model of pulmonary arterial hypertension (PAH) in rats; type: in vivo, rat; settings: for lumen: total vessel diameter ratio versus animals treated with MCT-alone: day 28, oral BID, NTP42 and TP20 0.25 mg/kg/dose, Sildenafil 50 mg/kg/dose
Description: FIGS. 19-23 show the efficacy of NTP42 in the monocrotoline (MCT)-induced model of pulmonary arterial hypertension (PAH) in rats. In brief, male Wistar/Kyoto rats were given a single dose of MCT (60 mg/kg, subcutaneously) and then treated with twice daily doses (oral dosing) for 28 days with either the drug vehicle, the test article NTP42 (0.25 mg/kg/dose, BID) or with the reference compounds Sildenafil (50 mg/kg/dose, BID) or TP20 (0.25 mg/kg/dose, BID). As a control, a group of rats were left untreated, i.e., no MCT or therapeutic drugs. At Day 28, post-MCT induction, rats were anaesthetised for cardiac surgery & hemodynamic parameters recorded. Thereafter, the trachea, heart & lungs were removed en masse, the wet weights of the heart & lungs recorded and then the lungs were harvested, fixed and processed for histopathology.
Aperio's ImageScope was used to analyze the digitally scanned H&E stained lung sections, where 10 random squares (approx. size or each square=1×10^6 μm^2) per lower, middle and upper section of lung tissue were selected for analysis. Within each square, all blood arterioles (complete arterioles within each square and those touching the right & bottom were assessed but not the left or top of the squares) were measured in ImageScope for luminal and total vessel diameter where the ratio of lumen to total vessel diameter was determined for each arteriole.
FIGS. 24-27 show the effect of the test articles on the mean (±S.E.M.) lumen: total vessel diameter ratio for all arterioles (Total) and the arterioles categorized by size: small, <50 μm total diameter; medium, 50-100 μm and large, >100 μm.
FIG. 27 presents data representing the mean (±SEM) lumen: total vessel diameter ratio for large arterioles (>100 μm).

[5] = biological target: T1, TP (Homo sapiens, UniProt P21731); experiment: U44069-mediated [Ca2+]i mobilization (CEREP); type: cell-based; settings: CEREP assay, agonist U44069; read-out: IC50 Value for Inhibition of U44069-Mediated [Ca2+]i Mobilization
T1 construct: CEREP
T1 sequence (P21731 1-343): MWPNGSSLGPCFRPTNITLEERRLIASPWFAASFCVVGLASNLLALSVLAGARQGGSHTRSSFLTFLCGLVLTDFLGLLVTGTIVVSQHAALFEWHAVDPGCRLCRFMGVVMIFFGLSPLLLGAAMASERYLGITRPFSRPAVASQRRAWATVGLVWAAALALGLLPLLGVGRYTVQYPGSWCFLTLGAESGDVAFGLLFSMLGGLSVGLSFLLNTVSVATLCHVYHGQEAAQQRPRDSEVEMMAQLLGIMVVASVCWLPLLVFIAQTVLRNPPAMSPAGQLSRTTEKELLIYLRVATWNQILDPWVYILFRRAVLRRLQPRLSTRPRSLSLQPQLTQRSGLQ
Source text: FIG. 18 presents the effect of NTP42 and NTP48 on TP- or U44069-mediated signaling (CEREP use the related U44069 rather than U46619), including IC50 values for inhibition (see also Table 4). Those effects indicate that NTP42 & NTP48 are potent antagonists of U46609 or TP. The differences in IC50 values may be attributed to the differences in the particular conditions of the assay, including differences in cell type, agonist, calcium indicator, etc.
Table 4 is an example of the IC50 values of NTP42 and NTP48 to antagonize TP-mediated [Ca^2+]i mobilization following stimulation of cells with the alternative TP agonist […].

Structure (SMILES) | effect on signaling through purinergic (ADP) receptors [1] | toxicity [2] | cell permeability [3] | lumen: total vessel diameter ratio versus animals treated with MCT-alone [4] | IC50 [5] | efficacy in the MCT-induced PAH model (hemodynamic and histological features) ([4]; MCT 60 mg/kg s.c., oral 0.25 mg/kg/dose BID for 28 days)
CC(C)(C)NC(=O)NS(=O)(=O)c1cc(C#N)ccc1Oc1cccc(-c2ccc(OC(F)(F)F)cc2)c1 [NTP43] | neither NTP42, NTP43 nor NTP48 exhibited any effect | minimal toxicity | favorable cell permeability | – | – | –
COc1ccc(-c2cccc(Oc3ccc(C#N)cc3S(=O)(=O)NC(=O)NC(C)(C)C)c2)cc1 [NTP4, reference compound] | like TP20 and NTP4, neither NTP42, NTP43 nor NTP48 exhibited any effect | – | – | – | – | –
COc1ccc(-c2cccc(Oc3ccc([N+](=O)[O-])cc3S(=O)(=O)NC(=O)NC(C)(C)C)c2)cc1 [TP20, reference compound] | like TP20 and NTP4, neither NTP42, NTP43 nor NTP48 exhibited any effect | – | – | significantly increased | – | –
CN(C)C(=O)c1ccc(-c2cccc(Oc3ccc(C#N)cc3S(=O)(=O)NC(=O)NC(C)(C)C)c2)cc1 [NTP48, 4-[3-[2-(tert-Butylcarbamoylsulfamoyl)-4-cyano-phenoxy]phenyl]-N,N-dimethyl-benzamide] | neither NTP42, NTP43 nor NTP48 exhibited any effect | minimal toxicity | favorable cell permeability | – | 7.71 ± 0.96 nM | –
CC(C)(C)NC(=O)NS(=O)(=O)c1cc(C#N)ccc1Oc1cccc(-c2ccc(OC(F)F)cc2)c1 [NTP42] | neither NTP42, NTP43 nor NTP48 exhibited any effect | minimal toxicity | favorable cell permeability | significantly increased | 3.28 ± 0.34 nM | efficacious
